Assays:
Assay type in all cases: cell-based, human
[1] = system: T24; assay: MTT cell survival / IC50, T24 cells; details: for Cell survival (%): Table S3, ng/ml: Pi 40, Pa 160, EH 250, Ci 1500, Mi 200, 1=Ci/Mi, 2=EH/Ci/Mi, 3=Pa/Ci/Mi, 4=Pi/Ci/Mi; for Single drug 4X Cell Survival (%): ng/ml: EH 1000, Ci 6000, Mi 800, Pi 160, Pa 640, Ge 20, EH/Ci/Mi regimen
Method: (§1) The clinical grade of the chemotherapeutics (NCI Dictionary of Cancer Terms) was provided by the First Affiliated Hospital of Harbin Medical University: Pirarubicin (Pi, Wanle, Shenzhen), Paclitaxel (Pa, Taiji, Sichuan), Adriamycin (Ad, Pfizer, Jiangsu), Epirubicin Hydrochloride (EH, Haizheng, Zhejiang), Hydroxycamptothecin (Hy, Lishizhen, Hubei), Cisplatin (Ci, Haosen, Jiangsu), Gemcitabine (Ge, Haosen, Jiangsu) and Mitomycin (Mi, Haizheng, Zhejiang). The drug induced cell death was determined by a thiazolyl […] (MTT, 490 nm reading) based cell proliferation assay in the cultured cells following treatment by various concentrations of drugs for 72 hours. The relative chemoresistance to each drug of all cell lines was calculated with the lowest IC50 as a reference. The overall chemoresistance of each cell line was described as “chemoresistance index”, the numerator of the total relative IC50 to all the drugs over the number of drugs to rank the overall resistance state of each cell line to the six chemotherapeutics collectively.
(§2) The relative IC50 (fold) of each drug of all nine cell lines was normalized to the lowest IC50 in the most sensitive cell line (FIG. 2G), to describe the single drug resistance of cell lines. The overall chemoresistance of each cell line, a “chemoresistance index” (the numerator of the total relative IC50 over the number of drugs) (FIG. 2G) were calculated to rank the overall resistance state of each cell line to this six chemotherapeutics.
(§3) Twenty six-drug combinations at the indicated doses were initially generated through a random number generator (using MATLAB MathWorks©, Natick, Mass., U.S.) (The upper half of Table 1). The cell survival (% over the not drug control) of treated cells was determined and then used for a calculation of the average cumulative cell survival (%, ACS: the sum of cell survival (%) per combination divided by the number of cell lines tested). ACS<30% was used to separate the effective from the not-effective combinations.

[2] = system: Biu87; assay: MTT cell survival / IC50, Biu87 cells; details: for Cell survival (%) / Single drug 4X Cell Survival (%): Biu87; for Cell survival (%): Table S3, ng/ml: Pi 40, Pa 160, EH 250, Ci 1500, Mi 200, 1=Ci/Mi, 2=EH/Ci/Mi, 3=Pa/Ci/Mi, 4=Pi/Ci/Mi; for Single drug 4X Cell Survival (%): ng/ml: EH 1000, Ci 6000, Mi 800, Pi 160, Pa 640, Ge 20, EH/Ci/Mi regimen; for Cell survival 72 hours / ACS (%): Biu87 cells; for Cell survival 72 hours: Table 4 (A); for ACS (%): Table 4 (B)
Method: as §1, §2, §3

[3] = system: H-bc; assay: MTT cell survival / IC50, H-bc cells; details: for Cell survival 72 hours / ACS (%): H-bc cells; for Cell survival 72 hours: Table 4 (A); for ACS (%): Table 4 (B); for Cell survival (%) / Single drug 4X Cell Survival (%): H-bc; for Cell survival (%): Table S3, ng/ml: Pi 40, Pa 160, EH 250, Ci 1500, Mi 200, 1=Ci/Mi, 2=EH/Ci/Mi, 3=Pa/Ci/Mi, 4=Pi/Ci/Mi; for Single drug 4X Cell Survival (%): ng/ml: EH 1000, Ci 6000, Mi 800, Pi 160, Pa 640, Ge 20, EH/Ci/Mi regimen
Method: as §1, §2, §3

[4] = system: DNA Damage response pathway; assay: Cignal Finder dual-luciferase pathway reporter, DNA Damage response (5637, Biu87, UM-UC-3, H-bc, SV-HUC-1); set-up: key to Relative activity, DNA Damage reporter: firefly/renilla ratio, background (negative control) subtracted; details: for Relative activity, DNA Damage reporter: luc/Renluc relative to negative control reporter, single drug at 4 folds vs EH/Ci/Mi combination
Method: The pathway analysis was performed with Qiagen's Cignal Finder Pathway Reporter Array systems according to the manufacturer's instructions. The pathway-focused dual-luciferase reporter construct was a mixture of an inducible transcription factor responsive firefly luciferase reporter and constitutively expressing renilla construct. Transcriptional response element (TRE) sequence response elements to each specific transcriptional factor triggered by the different signaling pathways are positioned before the TATA box of firefly luciferase reporter gene. The extent of activity of the reporter reflects the level of activity of the particular signaling pathway. CMV controlled renilla expression vector is co-transfected into the cell as an internal control. Non-inducible reporter construct that lacks the transcriptional factor binding sequence and could not be induced by any transcription factors is used as a negative control. Cells transfected with CMV directed firefly luciferase reporter gene serve as a positive control. Briefly, cells seeded in 6-well plates were transfected with Cignal finder pathway arrays according to the manufacturer's instructions (Qiagen). Then cells were seeded onto 96-well plates. […] After 6 h of incubation with the different drugs at 37° C., cells were lysed and a dual luciferase assay (for firefly and renilla luciferase) was performed using a PromegaGloMax 20/20 illuminometer. The firefly luciferase activities were normalized over the renilla luciferase activities after background activity determined by luciferase activities of negative controls was subtracted. A triple test of cell survival under these drug doses was also performed by MTT assay following 18 h incubation at 37° C. […]

[5] = system: Notch pathway; assay: Cignal Finder dual-luciferase pathway reporter, Notch; set-up: key to Relative activity, Notch reporter: firefly/renilla ratio, background (negative control) subtracted; details: for Relative activity, Notch reporter: luc/Renluc relative to negative control reporter, single drug at 4 folds vs EH/Ci/Mi combination;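 on digitalized pathway activity, Notch: code −1 means repressed below 0.5-fold of 5637 cells or no-drug control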
Method: The pathway analysis was performed with Qiagen's Cignal Finder Pathway Reporter Array systems according to the manufacturer's instructions. The pathway-focused dual-luciferase reporter construct was a mixture of an inducible transcription factor responsive firefly luciferase reporter and constitutively expressing renilla construct. Transcriptional response element (TRE) sequence response elements to each specific transcriptional factor triggered by the different signaling pathways are positioned before the TATA box of firefly luciferase reporter gene. The extent of activity of the reporter reflects the level of activity of the particular signaling pathway. CMV controlled renilla expression vector is co-transfected into the cell as an internal control. Non-inducible reporter construct that lacks the transcriptional factor binding sequence and could not be induced by any transcription factors is used as a negative control. Cells transfected with CMV directed firefly luciferase reporter gene serve as a positive control. Briefly, cells seeded in 6-well plates were transfected with Cignal finder pathway arrays according to the manufacturer's instructions (Qiagen). Then cells were seeded onto 96-well plates. Ci (6000 ng/mL), Mi (800 ng/mL), or EH (1000 ng/mL) and Ci/Mi/EH combination (Ci, 1500 ng/mL, Mi, 800 ng/mL and EH, 1000 ng/m L) were then added to the cells 24 h post-transfection. After 6 h of incubation with the different drugs at 37° C., cells were lysed and a dual luciferase assay (for firefly and renilla luciferase) was performed using a PromegaGloMax 20/20 illuminometer. The firefly luciferase activities were normalized over the renilla luciferase activities after background activity determined by luciferase activities of negative controls was subtracted. A triple test of cell survival under these drug doses was also performed by MTT assay following 18 h incubation at 37° C. […]

[6] = system: SCaBER; assay: MTT cell survival / IC50, SCaBER squamous carcinoma cells; details: for Cell survival (%): Table S3, ng/ml: Pi 40, Pa 160, EH 250, Ci 1500, Mi 200, 1=Ci/Mi, 2=EH/Ci/Mi, 3=Pa/Ci/Mi, 4=Pi/Ci/Mi; for Single drug 4X Cell Survival (%): ng/ml: EH 1000, Ci 6000, Mi 800, Pi 160, Pa 640, Ge 20, EH/Ci/Mi regimen
Method: as §1, §2

SMILES	Cell survival (%) [1]	Single drug 4X Cell Survival (%) [1]	Cell survival (%) [2]	Single drug 4X Cell Survival (%) [2]	Cell survival 72 hours [2]	ACS (%) [2]	Cell survival 72 hours [3]	ACS (%) [3]	Cell survival (%) [3]	Single drug 4X Cell Survival (%) [3]	relative drug trigged pathway activity over the no-drug level, DNA Damage ([4]; 5637 cells)	Relative activity, DNA Damage reporter ([4]; 5637 cells)	digitalized pathway activity, DNA Damage ([4]; Biu87 cells)	relative drug trigged pathway activity over the no-drug level, DNA Damage ([4]; Biu87 cells)	Relative activity, DNA Damage reporter ([4]; Biu87 cells)	relative drug trigged pathway activity over the no-drug level, DNA Damage ([4]; H-bc cells)	Relative activity, DNA Damage reporter ([4]; H-bc cells)	relative drug trigged pathway activity over the no-drug level, DNA Damage ([4]; SV-HUC-1 cells)	Relative activity, DNA Damage reporter ([4]; SV-HUC-1 cells)	Relative activity, DNA Damage reporter ([4]; UM-UC-3 cells)	further results
N.N.[Cl][Pt][Cl] [Ci, (SP-4-2)-diamminedichloroplatinum(II)]	15.46%	10.49%	20.94%	12.93%	12.93%	12.93%	1.61%	1.61%	41.98%	1.61%	2.17 fold	0.48	0 (null (0) if neither of the above holds)	0.63 fold	0.94	1.69 fold	4.19	1.54 fold	3.70	2.38	digitalized pathway activity, DNA Damage ([4]; UM-UC-3 cells): 0 (null (0) if neither of the above holds); relative drug trigged pathway activity over the no-drug level, DNA Damage ([4]; Um-Uc-3 cells): 0.68 fold; digitalized pathway activity, Notch ([5]; 5637 cells): 0 (null (0) if neither of the above holds); relative drug trigged pathway activity over the no-drug level, Notch ([5]; 5637 cells): 1.39 fold; Relative activity, Notch reporter ([5]; 5637 cells): 1.41; relative drug trigged pathway activity over the no-drug level, Notch ([5]; Biu87 cells): 0.5 fold; Relative activity, Notch reporter ([5]; Biu87 cells): 2.23; relative drug trigged pathway activity over the no-drug level, Notch ([5]; H-bc cells): 0.31 fold; Relative activity, Notch reporter ([5]; H-bc cells): 1.60; digitalized pathway activity, Notch ([5]; SV-HUC-1 cells): 0 (null (0) if neither of the above holds); relative drug trigged pathway activity over the no-drug level, Notch ([5]; SV-HUC-1 cells): 1.44 fold; Relative activity, Notch reporter ([5]; SV-HUC-1 cells): 6.20; digitalized pathway activity, Notch ([5]; UM-UC-3 cells): 0 (null (0) if neither of the above holds); Relative activity, Notch reporter ([5]; UM-UC-3 cells): 4.99; relative drug trigged pathway activity over the no-drug level, Notch ([5]; Um-Uc-3 cells): 1.01 fold; Cell survival (%) [6]: 22.05%; Single drug 4X Cell Survival (%) [6]: 5.58%
COc1cccc2c1C(=O)c1c(O)c3c(c(O)c1C2=O)C[C@@](O)(C(=O)CO)C[C@@H]3[C@@H]1C[C@H](N)[C@@H](O)[C@H](C)O1 [EH, (8R,10S)-10-((2S,4S,5R,6S)-4-amino-5-hydroxy-6-methyltetrahydro-2H-pyran-2-yl)-6,8,11-trihydroxy-8-(2-hydroxyacetyl)-1-methoxy-7,8,9,10-tetrahydrotetracene-5,12-dione]	20.13%	17.79%	38.68%	23.24%	23.24%	23.24%	2.60%	2.60%	61.03%	2.6%	3.42 fold	0.75	0 (null (0) if neither of the above holds)	1.04 fold	1.58	6.13 fold	3.99	2.5 fold	6.00	5.96	relative drug trigged pathway activity over the no-drug level, DNA Damage ([4]; Um-Uc-3 cells): 1.71 fold; relative drug trigged pathway activity over the no-drug level, Notch ([5]; 5637 cells): 1.92 fold; Relative activity, Notch reporter ([5]; 5637 cells): 1.95; digitalized pathway activity, Notch ([5]; Biu87 cells): 0 (null (0) if neither of the above holds); relative drug trigged pathway activity over the no-drug level, Notch ([5]; Biu87 cells): 1.34 fold; Relative activity, Notch reporter ([5]; Biu87 cells): 5.94; relative drug trigged pathway activity over the no-drug level, Notch ([5]; H-bc cells): 1.6 fold; Relative activity, Notch reporter ([5]; H-bc cells): 2.20; digitalized pathway activity, Notch ([5]; SV-HUC-1 cells): 0 (null (0) if neither of the above holds); relative drug trigged pathway activity over the no-drug level, Notch ([5]; SV-HUC-1 cells): 1.3 fold; Relative activity, Notch reporter ([5]; SV-HUC-1 cells): 5.60; Relative activity, Notch reporter ([5]; UM-UC-3 cells): 10.16; relative drug trigged pathway activity over the no-drug level, Notch ([5]; Um-Uc-3 cells): 2.05 fold; Cell survival (%) [6]: 38.31%; Single drug 4X Cell Survival (%) [6]: 6.67%

From patent publication US10238688B2, “Combination therapies for bladder cancer” (GENEDIA BIOTECH CO. LTD., priority 2015, dated 2019)
